The source of these data is PubChem BioAssay (NCI).

SMILES strings stand for the structures.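 Test compounds were applied to cells in 96-well plates for 48 hours at 5 doses. GI50 is the concentration that inhibits growth by half. The concentration for full growth arrest is given as TGI.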

Some test systems named below: DU-145 prostate; HOP-62 NSCLC; HL-60(TB) leukemia; A498 renal; NCI-H23 lung; NCI-H460 lung; CCRF-CEM leukemia; COLO 205 colon; RXF 393 renal; NCI-H226 lung.
Holding throughout (experiment): inhibition of tumour cell growth, NCI panel, 48 h

Turning to `C#Cc1cccc(NC(=O)Nc2cccc(NC(=O)CCl)c2)c1`, the GI50 in the assay on DU-145 prostate was greater than 82.5 µM; in the assay on HOP-62 NSCLC, 63.6 µM; in the assay on HL-60(TB) leukemia, 18.6 µM; in the assay on A498 renal, 1.22 µM; in the assay with NCI-H23 lung it was 14 µM; in the assay on NCI-H460 lung it was 27.3 µM. For the same molecule, the GI50 is 10.9 µM in the assay with CCRF-CEM leukemia, 58.7 µM in the assay on COLO 205 colon, 13.4 µM in the assay with RXF 393 renal and 21.6 µM with NCI-H226 lung. In addition, the TGI with DU-145 prostate was greater than 82.5 µM; in the assay on HOP-62 NSCLC, greater than 82.5 µM; with HL-60(TB) leukemia, 73.9 µM; with A498 renal, greater than 82.5 µM; in the assay with NCI-H23 lung, 31.2 µM; in the assay with NCI-H460 lung it was greater than 82.5 µM. Also, the TGI in the assay with CCRF-CEM leukemia is 68.6 µM; in the assay with COLO 205 colon it was greater than 82.5 µM; in the assay on RXF 393 renal, 63.6 µM; in the assay with NCI-H226 lung, 75.2 µM.

Consider `Cc1nn(-c2ccccc2)c2ncc3c(c12)C(=O)N(Cc1ccccc1)C3=O`, for which the GI50 in the assay on DU-145 prostate is 72.2 µM; with HOP-62 NSCLC it was 3.73 µM; with HL-60(TB) leukemia, greater than 100 µM; in the assay on A498 renal, 3.51 µM; in the assay with NCI-H23 lung, 9.64 µM; with NCI-H460 lung, 2.55 µM. In addition, the GI50 in the assay with CCRF-CEM leukemia is 1.99 µM; in the assay with COLO 205 colon, 4.99 µM; with RXF 393 renal, 6.67 µM; in the assay on NCI-H226 lung, 3.46 µM. The TGI is greater than 100 µM in the assay with DU-145 prostate; 13.8 µM with HOP-62 NSCLC; greater than 100 µM in the assay with HL-60(TB) leukemia; 21.8 µM in the assay with A498 renal; 66.1 µM in the assay with NCI-H23 lung; greater than 100 µM with NCI-H460 lung. The TGI in the assay on CCRF-CEM leukemia was 16.8 µM; with COLO 205 colon it was greater than 100 µM; in the assay on RXF 393 renal it was 38.3 µM; with NCI-H226 lung, 13 µM.

As for `O=C(/C=C/CN1CCCCC1)Nc1cc2c(Nc3ccc(F)c(Cl)c3F)ncnc2cc1OCCOC(F)F`, the GI50 was 0.265 µM in the assay with DU-145 prostate; 1.64 µM in the assay with HOP-62 NSCLC; 1.4 µM in the assay with HL-60(TB) leukemia; 0.299 µM in the assay on A498 renal; 1.67 µM in the assay with NCI-H23 lung; 2.01 µM in the assay on NCI-H460 lung. Further, the GI50 was 2.42 µM in the assay with CCRF-CEM leukemia, 1.6 µM in the assay with COLO 205 colon, 0.497 µM in the assay with RXF 393 renal and 1.48 µM in the assay on NCI-H226 lung. Besides, the TGI is 6.24 µM with DU-145 prostate; 7.04 µM with HOP-62 NSCLC; 5.68 µM in the assay on HL-60(TB) leukemia; 2.02 µM in the assay on A498 renal; 6.99 µM in the assay with NCI-H23 lung; 11 µM with NCI-H460 lung. Further, the TGI stood at 10.7 µM in the assay on CCRF-CEM leukemia, 4.93 µM in the assay with COLO 205 colon, 2.38 µM with RXF 393 renal and 5.73 µM with NCI-H226 lung.

For `COc1ccc(-c2nccn2-c2cc(OC)c(OC)c(OC)c2)cc1`, the GI50 in the assay on DU-145 prostate was 13.1 µM; in the assay on HOP-62 NSCLC it was 13.7 µM; in the assay with HL-60(TB) leukemia it was 25.4 µM; in the assay with A498 renal, 0.909 µM; in the assay with NCI-H23 lung, 9.09 µM; in the assay with NCI-H460 lung, 1.6 µM. For the same molecule, the GI50 with CCRF-CEM leukemia is 8.13 µM; in the assay on COLO 205 colon, 0.598 µM; in the assay with RXF 393 renal, 1.12 µM; with NCI-H226 lung it was 14.6 µM. Moreover, the TGI in the assay on DU-145 prostate, in the assay on HOP-62 NSCLC, in the assay on HL-60(TB) leukemia, with NCI-H23 lung, in the assay with NCI-H460 lung and with CCRF-CEM leukemia was greater than 100 µM throughout. For the same molecule, the values for the TGI in the assay with COLO 205 colon, in the assay with RXF 393 renal and in the assay with NCI-H226 lung were 7.29 µM, 26.6 µM and greater than 100 µM, respectively.

Regarding `CNCc1ccc(C)c(NC(=O)c2ccc(Nc3nc(-c4ccccc4)c4ccccc4n3)cc2)c1`, the GI50 was 2.88 µM in the assay on DU-145 prostate; 1.96 µM in the assay with HOP-62 NSCLC; 1.92 µM with HL-60(TB) leukemia; 1.53 µM in the assay with A498 renal; 1.87 µM with NCI-H23 lung; 1.8 µM with NCI-H460 lung. The GI50 in the assay on CCRF-CEM leukemia was 2.07 µM; in the assay on COLO 205 colon, 1.84 µM; in the assay on RXF 393 renal it was 1.51 µM; in the assay with NCI-H226 lung, 1.98 µM. Moreover, the TGI with DU-145 prostate was 7.65 µM; with HOP-62 NSCLC, 3.67 µM; in the assay with HL-60(TB) leukemia it was 4.33 µM; in the assay with A498 renal, 3.04 µM; in the assay on NCI-H23 lung, 3.71 µM; with NCI-H460 lung, 3.38 µM. Besides, the TGI worked out at 5.43 µM in the assay with CCRF-CEM leukemia, 3.57 µM in the assay on COLO 205 colon, 2.95 µM in the assay on RXF 393 renal and 4.9 µM in the assay with NCI-H226 lung.

Consider `COc1ccc(/C=C2\CC(C)CC3C2=NN(C(C)=O)C3c2ccc(OC)c(OC)c2)cc1OC` (centres undefined), for which the GI50 with DU-145 prostate is 19.7 µM; in the assay with HOP-62 NSCLC it was 17.1 µM; in the assay on HL-60(TB) leukemia it was 12.6 µM; in the assay on A498 renal, 15.9 µM; with NCI-H23 lung it was 14.9 µM; with NCI-H460 lung it was 15.5 µM. For the same molecule, the GI50 in the assay with CCRF-CEM leukemia is 20.8 µM; in the assay on COLO 205 colon, 11.1 µM; in the assay with RXF 393 renal, 17.9 µM; in the assay on NCI-H226 lung, 18.8 µM. Also, the TGI in the assay on DU-145 prostate worked out at 47.8 µM; with HOP-62 NSCLC, 37.2 µM; in the assay on HL-60(TB) leukemia, 52.1 µM; in the assay with A498 renal it was 31 µM; with NCI-H23 lung, 29.3 µM; in the assay with NCI-H460 lung it was 34.9 µM. The TGI is 68.8 µM with CCRF-CEM leukemia, 27.7 µM with COLO 205 colon, 39 µM in the assay with RXF 393 renal and greater than 100 µM in the assay with NCI-H226 lung.

Take `CC(=O)OC1C(OC/C2=C/C3[C@@H](C(C)C)CC=C(C)[C@@H]3CC(OC(=O)/C=C/c3cn(C)cn3)[C@]3(C)C=C[C@@]2(O)O3)OCC(O)C1O` (some centres undefined): the GI50 in the assay with DU-145 prostate was 0.0155 µM; in the assay with HOP-62 NSCLC, 0.0246 µM; in the assay on HL-60(TB) leukemia, 0.0164 µM; with A498 renal, 0.0122 µM; with NCI-H23 lung, 0.0227 µM; in the assay on NCI-H460 lung, 0.00928 µM. The GI50 in the assay on CCRF-CEM leukemia is 0.0399 µM; with COLO 205 colon it was 0.0112 µM; with RXF 393 renal it was 0.0149 µM. Moreover, the TGI was 0.0475 µM with DU-145 prostate; 1.51 µM with HL-60(TB) leukemia; 0.106 µM in the assay with A498 renal; greater than 50 µM in the assay on NCI-H23 lung; greater than 50 µM in the assay on CCRF-CEM leukemia; 0.0975 µM in the assay on COLO 205 colon. Besides, the TGI is 0.0741 µM in the assay with RXF 393 renal and greater than 50 µM in the assay on NCI-H226 lung.

Regarding `COc1cc(C2C3=C(COC3=O)N(CCO)c3cc4c(cc32)CCC4)cc(OC)c1OC` (centres undefined), the GI50 in the assay on DU-145 prostate was 0.0787 µM; in the assay on HOP-62 NSCLC it was 0.121 µM; in the assay with HL-60(TB) leukemia it was 0.0842 µM; in the assay with A498 renal, 0.0722 µM; in the assay on NCI-H23 lung it was 0.0903 µM; in the assay on NCI-H460 lung, 0.106 µM. Also, the GI50 in the assay on CCRF-CEM leukemia was 0.13 µM; in the assay on COLO 205 colon, 0.0651 µM; with RXF 393 renal it was 0.0446 µM; in the assay with NCI-H226 lung, 0.417 µM. The TGI is 0.214 µM in the assay on DU-145 prostate; greater than 32.5 µM with HOP-62 NSCLC; 1.76 µM with A498 renal; 1.1 µM in the assay on NCI-H460 lung; greater than 32.5 µM in the assay with CCRF-CEM leukemia; 0.148 µM in the assay with COLO 205 colon. The TGI with RXF 393 renal is 0.141 µM; in the assay with NCI-H226 lung it was greater than 32.5 µM.

As to `COc1cc2c(cc1Nc1nc(Nc3ccsc3C(N)=O)c3cc[nH]c3n1)N(C(=O)CN(C)C)CCC2`, the GI50 was 0.481 µM in the assay on DU-145 prostate; 0.917 µM in the assay on HOP-62 NSCLC; 0.00552 µM in the assay on HL-60(TB) leukemia; 0.5 µM in the assay with A498 renal; 0.343 µM in the assay with NCI-H23 lung; 0.498 µM in the assay on NCI-H460 lung. In addition, the GI50 was 0.162 µM in the assay with CCRF-CEM leukemia, less than 0.0025 µM in the assay on COLO 205 colon, 0.612 µM in the assay on RXF 393 renal and 1.12 µM in the assay on NCI-H226 lung. In addition, the TGI in the assay on DU-145 prostate was found to be 1.64 µM; in the assay on HOP-62 NSCLC, 6.84 µM; in the assay on HL-60(TB) leukemia it was 1.09 µM; in the assay with A498 renal, 4.13 µM; with NCI-H23 lung, 8.55 µM; in the assay with NCI-H460 lung, 3.21 µM. The TGI is 9.66 µM in the assay on CCRF-CEM leukemia, 0.394 µM in the assay with COLO 205 colon, 3.34 µM with RXF 393 renal and 7.18 µM with NCI-H226 lung.
